# Reference: publication PMC4724694 (Acta Pharmaceutica Sinica. B, 2016)
# Like-named read-outs stand apart in the source and are kept apart here.
# Experiments:
# 5-LOX [1] = biological target: T1, 5-LOX (Rattus norvegicus, UniProt P12527); experiment: Inhibition of 5-LOX product synthesis; assay type: cell-based; conditions: for inhibition at 5 µM: PMNL, read-out: Inhibition at 5 μmol/L (%); for IC50: rat peritoneal polymorphonuclear leukocytes; for Inhibition at 5 μmol/L (%): rat PMNLs, mean of three determinations
# T1 sequence (P12527 1-673): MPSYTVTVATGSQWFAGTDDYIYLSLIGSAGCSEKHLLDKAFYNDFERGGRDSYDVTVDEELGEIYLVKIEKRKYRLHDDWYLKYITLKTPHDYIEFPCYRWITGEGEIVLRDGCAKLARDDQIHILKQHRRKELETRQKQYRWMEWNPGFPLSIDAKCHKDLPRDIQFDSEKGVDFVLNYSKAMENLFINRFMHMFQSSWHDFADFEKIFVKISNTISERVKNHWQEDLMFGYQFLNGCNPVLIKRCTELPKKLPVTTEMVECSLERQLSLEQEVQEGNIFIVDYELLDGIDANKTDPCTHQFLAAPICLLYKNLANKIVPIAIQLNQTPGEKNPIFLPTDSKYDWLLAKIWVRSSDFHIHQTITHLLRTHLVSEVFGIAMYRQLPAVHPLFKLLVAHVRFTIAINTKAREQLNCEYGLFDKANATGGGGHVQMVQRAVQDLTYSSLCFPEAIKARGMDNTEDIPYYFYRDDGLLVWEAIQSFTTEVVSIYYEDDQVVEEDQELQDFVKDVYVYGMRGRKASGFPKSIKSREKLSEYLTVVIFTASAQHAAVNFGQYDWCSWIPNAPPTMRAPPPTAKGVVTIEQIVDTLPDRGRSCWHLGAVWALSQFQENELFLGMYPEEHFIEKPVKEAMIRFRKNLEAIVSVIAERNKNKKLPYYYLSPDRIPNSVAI
# 5-LOX [2] = biological target: T2, 5-LOX (Homo sapiens, UniProt P09917); experiment: Inhibition of 5-LOX product synthesis; assay type: cell-based
# T2 sequence (P09917 1-674): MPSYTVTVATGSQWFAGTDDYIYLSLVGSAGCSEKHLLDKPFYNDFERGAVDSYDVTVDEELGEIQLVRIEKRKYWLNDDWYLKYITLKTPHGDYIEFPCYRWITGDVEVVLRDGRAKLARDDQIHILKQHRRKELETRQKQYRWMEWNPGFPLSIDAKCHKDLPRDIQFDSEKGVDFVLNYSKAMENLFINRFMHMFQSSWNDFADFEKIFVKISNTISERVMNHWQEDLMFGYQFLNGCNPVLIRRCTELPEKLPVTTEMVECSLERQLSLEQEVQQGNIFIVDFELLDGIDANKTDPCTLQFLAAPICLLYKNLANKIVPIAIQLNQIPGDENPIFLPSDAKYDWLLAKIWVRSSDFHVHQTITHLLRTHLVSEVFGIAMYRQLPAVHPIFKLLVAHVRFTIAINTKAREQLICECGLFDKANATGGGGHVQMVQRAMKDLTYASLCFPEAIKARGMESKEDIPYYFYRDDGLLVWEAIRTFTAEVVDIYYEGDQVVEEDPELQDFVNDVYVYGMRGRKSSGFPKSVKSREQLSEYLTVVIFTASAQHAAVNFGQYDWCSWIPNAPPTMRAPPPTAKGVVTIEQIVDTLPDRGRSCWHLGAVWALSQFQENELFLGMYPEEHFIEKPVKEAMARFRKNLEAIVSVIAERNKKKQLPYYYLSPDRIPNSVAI
# 5-LOX [3] = biological target: T2, 5-LOX; experiment: Cell-free 5-LOX enzymatic assay; assay type: biochemical
structure (smiles),measurement,setting,value
"CC(C)(C)c1cc(NC(=O)c2cc(-c3ccccc3)n(-c3ccc(S(N)(=O)=O)cc3)n2)cc(C(C)(C)C)c1O [4a, N-(3,5-di-tert-butyl-4-hydroxyphenyl)-1-(4-aminosulfonyl-phenyl)-5-phenyl-1H-pyrazole-3-carboxamide]",inhibition at 5 µM,5-LOX [1],55.7%
"Cc1ccc(-c2cc(C(=O)Nc3cc(C(C)(C)C)c(O)c(C(C)(C)C)c3)nn2-c2ccc(S(N)(=O)=O)cc2)cc1 [4b, N-(3,5-di-tert-butyl-4-hydroxyphenyl)-1-(4-aminosulfonylphenyl)-5-p-tolyl-1H-pyrazole-3-carboxamide]",inhibition at 5 µM,5-LOX [1],65.7%
"COc1ccc(-c2cc(C(=O)Nc3cc(C(C)(C)C)c(O)c(C(C)(C)C)c3)nn2-c2ccc(S(N)(=O)=O)cc2)cc1 [4c, N-(3,5-di-tert-butyl-4-hydroxyphenyl)-1-(4-aminosulfonylphenyl)-5-p-meth-oxyphenyl-1H-pyrazole-3-carboxamide]",IC50,5-LOX [2],4870 nM
same,IC50,5-LOX [3],136 ± 15 nM
same,IC50,5-LOX [1]; IC50 PMNL,450 nM
same,inhibition at 5 µM,5-LOX [1],74.9%
"CC(C)Cc1ccc(-c2cc(C(=O)Nc3cc(C(C)(C)C)c(O)c(C(C)(C)C)c3)nn2-c2ccc(S(N)(=O)=O)cc2)cc1 [4d, N-(3,5-di-tert-butyl-4-hydroxyphenyl)-1-(4-aminosulfonylphenyl)-5-p-iso-butylphenyl-1H-pyrazole-3-carboxamide]",inhibition at 5 µM,5-LOX [1],59%
"CC(C)(C)c1cc(NC(=O)c2cc(-c3ccc4c(c3)OCCO4)n(-c3ccc(S(N)(=O)=O)cc3)n2)cc(C(C)(C)C)c1O [4f, N-(3,5-di-tert-butyl-4-hydroxyphenyl)-5-(2,3-dihydrobenzo [1, 4]dioxin-7-yl)-1-(4-aminosulfonylphenyl)-1H-pyrazole-3-carboxamide]",inhibition at 5 µM,5-LOX [1],50.7%
"CC(C)(C)c1cc(NC(=O)c2cc(-c3ccc4ccccc4c3)n(-c3ccc(S(N)(=O)=O)cc3)n2)cc(C(C)(C)C)c1O [4g, N-(3,5-di-tert-butyl-4-hydroxyphenyl)-1-(4-aminosulfonylphenyl)-5-naphth-2-yl-1H-pyrazole-3-carboxamide]",IC50,5-LOX [2],2110 nM
same,IC50,5-LOX [3],165 ± 17 nM
same,IC50,5-LOX [1]; IC50 PMNL,750 nM
same,inhibition at 5 µM,5-LOX [1],66.1%
"CC(C)(C)c1cc(NC(=O)c2cc(-c3ccc(F)cc3)n(-c3ccc(S(N)(=O)=O)cc3)n2)cc(C(C)(C)C)c1O [4h, N-(3,5-di-tert-butyl-4-hydroxyphenyl)-1-(4-aminosulfonylphenyl)-5-p-fluorophenyl-1H-pyrazole-3-carboxamide]",inhibition at 5 µM,5-LOX [1],39.3%
"CC(C)(C)c1cc(NC(=O)c2cc(-c3ccc(C(F)(F)F)cc3)n(-c3ccc(S(N)(=O)=O)cc3)n2)cc(C(C)(C)C)c1O [4i, N-(3,5-di-tert-butyl-4-hydroxyphenyl)-1-(4-aminosulfonylphenyl)-5-p-trifluoromethylphenyl-1H-pyrazole-3-carboxamide]",Inhibition at 5 μmol/L (%),5-LOX [1],61.9%
"CC(C)(C)c1cc(NC(=O)c2cc(C3CCCCC3)n(-c3ccc(S(N)(=O)=O)cc3)n2)cc(C(C)(C)C)c1O [4j, N-(3,5-di-tert-butyl-4-hydroxyphenyl)-1-(4-aminosulfonylphenyl)-5-cyclo-hexyl-1H-pyrazole-3-carboxamide]",IC50,5-LOX [2],33900 nM
same,IC50,5-LOX [1]; IC50 PMNL,1070 nM
same,inhibition at 5 µM,5-LOX [1],69.2%
"CC(C)(C)c1cc(NC(=O)c2cc(-c3ccc(Br)s3)n(-c3ccc(S(N)(=O)=O)cc3)n2)cc(C(C)(C)C)c1O [4k, N-(3,5-di-tert-butyl-4-hydroxyphenyl)-1-(4-aminosulfonylphenyl)-5-(5-bromothiophen-2-yl)-1H-pyrazole-3-carboxamide]",IC50,5-LOX [2],5830 nM
same,IC50,5-LOX [3],159 ± 16 nM
same,IC50,5-LOX [1]; IC50 PMNL,900 nM
same,inhibition at 5 µM,5-LOX [1],74.5%
"CC(C)(C)c1cc(NC(=O)c2cc(-c3ccccc3)n(-c3ccc(S(C)(=O)=O)cc3)n2)cc(C(C)(C)C)c1O [5a, N-(3,5-di-tert-butyl-4-hydroxyphenyl)-1-(4-methylsulfonylphenyl)-5-phenyl-1H-pyrazole-3-carboxamide]",inhibition at 5 µM,5-LOX [1],41.9%
"Cc1ccc(-c2cc(C(=O)Nc3cc(C(C)(C)C)c(O)c(C(C)(C)C)c3)nn2-c2ccc(S(C)(=O)=O)cc2)cc1 [5b, N-(3,5-di-tert-butyl-4-hydroxyphenyl)-1-(4-methylsulfonylphenyl)-5-p-tolyl-1H-pyrazole-3-carboxamide]",inhibition at 5 µM,5-LOX [1],62.8%
"COc1ccc(-c2cc(C(=O)Nc3cc(C(C)(C)C)c(O)c(C(C)(C)C)c3)nn2-c2ccc(S(C)(=O)=O)cc2)cc1 [5c, N-(3,5-di-tert-butyl-4-hydroxyphenyl)-1-(4-methylsulfonylphenyl)-5-p-methoxyphenyl-1H-pyrazole-3-carboxamide]",inhibition at 5 µM,5-LOX [1],35.6%
"CC(C)Cc1ccc(-c2cc(C(=O)Nc3cc(C(C)(C)C)c(O)c(C(C)(C)C)c3)nn2-c2ccc(S(C)(=O)=O)cc2)cc1 [5d, N-(3,5-di-tert-butyl-4-hydroxyphenyl)-1-(4-methylsulfonylphenyl)-5-p-iso-butylphenyl-1H-pyrazole-3-carboxamide]",inhibition at 5 µM,5-LOX [1],60.2%
"CC(C)(C)c1cc(NC(=O)c2cc(-c3ccc4c(c3)OCO4)n(-c3ccc(S(C)(=O)=O)cc3)n2)cc(C(C)(C)C)c1O [5e, N-(3,5-di-tert-butyl-4-hydroxyphenyl)-5-(benzo [1, 3]dioxol-5-yl)-1-(4-methylsulfonylphenyl)-1H-pyrazole-3-carboxamide]",IC50,5-LOX [2],940 nM
same,IC50,5-LOX [3],169 ± 16 nM
same,IC50,5-LOX [1]; IC50 PMNL,640 nM
same,inhibition at 5 µM,5-LOX [1],79.3%
"CC(C)(C)c1cc(NC(=O)c2cc(-c3ccc4c(c3)OCCO4)n(-c3ccc(S(C)(=O)=O)cc3)n2)cc(C(C)(C)C)c1O [5f, N-(3,5-di-tert-butyl-4-hydroxyphenyl)-5-(2,3-dihydrobenzo [1, 4]dioxin-7-yl)-1-(4-methylsulfonylphenyl)-1H-pyrazole-3-carboxamide]",IC50,5-LOX [2],4650 nM
same,IC50,5-LOX [3],273 ± 21 nM
same,IC50,5-LOX [1]; IC50 PMNL,810 nM
same,inhibition at 5 µM,5-LOX [1],70.3%
"CC(C)(C)c1cc(NC(=O)c2cc(-c3ccc4ccccc4c3)n(-c3ccc(S(C)(=O)=O)cc3)n2)cc(C(C)(C)C)c1O [5g, N-(3,5-di-tert-butyl-4-hydroxyphenyl)-1-(4-methylsulfonylphenyl)-5-naphth-2-yl-1H-pyrazole-3-carboxamide]",inhibition at 5 µM,5-LOX [1],51.7%
"CC(C)(C)c1cc(NC(=O)c2cc(-c3ccc(C(F)(F)F)cc3)n(-c3ccc(S(C)(=O)=O)cc3)n2)cc(C(C)(C)C)c1O [5i, N-(3,5-di-tert-butyl-4-hydroxyphenyl)-1-(4-methylsulfonylphenyl)-5-p-tri-fluoromethylphenyl-1H-pyrazole-3-carboxamide]",IC50,"5-LOX [2]; read-out: IC50 HWB, human whole blood",1130 nM
same,IC50,"5-LOX [3]; read-out: IC50 Enzymatic assay, cell-free, human 5-LOX, triplicate",127 ± 29 nM
same,Inhibition at 5 μmol/L (%),5-LOX [1],69.6%
same,IC50,5-LOX [1]; read-out: IC50 PMNL,800 nM
"CC(C)(C)c1cc(NC(=O)c2cc(C3CCCCC3)n(-c3ccc(S(C)(=O)=O)cc3)n2)cc(C(C)(C)C)c1O [5j, N-(3,5-di-tert-butyl-4-hydroxyphenyl)-1-(4-methylsulfonylphenyl)-5-cyclo-hexyl-1H-pyrazole-3-carboxamide]",inhibition at 5 µM,5-LOX [1],57.3%
"CC(C)(C)c1cc(NC(=O)c2cc(-c3ccccc3)n(-c3ccc(F)cc3)n2)cc(C(C)(C)C)c1O [6a, N-(3,5-di-tert-butyl-4-hydroxyphenyl)-1-(4-fluorophenyl)-5-phenyl-1H-pyrazole-3-carboxamide]",inhibition at 5 µM,5-LOX [1],56.8%
"Cc1ccc(-c2cc(C(=O)Nc3cc(C(C)(C)C)c(O)c(C(C)(C)C)c3)nn2-c2ccc(F)cc2)cc1 [6b, N-(3,5-di-tert-butyl-4-hydroxyphenyl)-1-(4-fluorophenyl)-5-p-tolyl-1H-pyrazole-3-carboxamide]",IC50,5-LOX [2],10200 nM
same,IC50,5-LOX [3],327 ± 22 nM
same,IC50,5-LOX [1]; IC50 PMNL,820 nM
same,inhibition at 5 µM,5-LOX [1],83.7%
